Key:
Assay in all cases: relative viability (nuclei count vs DMSO), 5 days (fraction); higher = more cells survive
OSI-027 + Decitabine = compound: COc1cccc2cc(-c3nc([C@H]4CC[C@H](C(=O)O)CC4)n4ncnc(N)c34)[nH]c12 [OSI-027] + Nc1ncn([C@H]2C[C@H](O)[C@@H](CO)O2)c(=O)n1 [Decitabine] (partner 2 µM)
Method in brief: (§1)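 Cells from lung cancer lines were seeded into 1536-well plates and, one day later, dosed by pin tool. Treatments were either a single drug or a fixed dose of an anchor drug with five library-drug doses (not always all listed) in √10 steps. After 5 days, nuclei were stained in a one-step fixation (final 0.05% Triton X-100, 1% formaldehyde, 1 ug/ml Hoechst) and counted on 4× images, and relative viability is the treated-to-vehicle nuclei ratio, as the median of duplicate plates.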

OSI-027 + Linsitinib = compound: COc1cccc2cc(-c3nc([C@H]4CC[C@H](C(=O)O)CC4)n4ncnc(N)c34)[nH]c12 [OSI-027] + C[C@]1(O)C[C@@H](c2nc(-c3ccc4ccc(-c5ccccc5)nc4c3)c3c(N)nccn32)C1 [Linsitinib] (partner 1 µM)
Method in brief: as §1

Alpelisib + Dasatinib = compound: Cc1nc(NC(=O)N2CCC[C@H]2C(N)=O)sc1-c1ccnc(C(C)(C)C(F)(F)F)c1 [Alpelisib] + Cc1nc(Nc2ncc(C(=O)Nc3c(C)cccc3Cl)s2)cc(N2CCN(CCO)CC2)n1 [Dasatinib] (partner 0.075 µM)
Method in brief: as §1

Vemurafenib + Linsitinib = compound: CCCS(=O)(=O)Nc1ccc(F)c(C(=O)c2c[nH]c3ncc(-c4ccc(Cl)cc4)cc23)c1F [Vemurafenib] + C[C@]1(O)C[C@@H](c2nc(-c3ccc4ccc(-c5ccccc5)nc4c3)c3c(N)nccn32)C1 [Linsitinib] (partner 1 µM)
Method in brief: as §1

Row | Cell Line | relative viability (OSI-027 + Decitabine; first compound 0.01 µM) | relative viability (OSI-027 + Decitabine; first compound 0.03162 µM) | relative viability (OSI-027 + Decitabine; first compound 0.1 µM) | relative viability (OSI-027 + Decitabine; first compound 0.3162 µM) | relative viability (OSI-027 + Decitabine; first compound 1 µM) | relative viability (OSI-027 + Linsitinib; first compound 0.01 µM) | relative viability (OSI-027 + Linsitinib; first compound 0.03162 µM) | relative viability (OSI-027 + Linsitinib; first compound 0.1 µM) | relative viability (OSI-027 + Linsitinib; first compound 0.3162 µM) | relative viability (OSI-027 + Linsitinib; first compound 1 µM) | relative viability (Alpelisib + Dasatinib; first compound 0.04 µM) | relative viability (Alpelisib + Dasatinib; first compound 0.1265 µM) | relative viability (Alpelisib + Dasatinib; first compound 0.4 µM) | relative viability (Alpelisib + Dasatinib; first compound 1.265 µM) | relative viability (Alpelisib + Dasatinib; first compound 4 µM) | relative viability (Vemurafenib + Linsitinib; first compound 0.03162 µM) | relative viability (Vemurafenib + Linsitinib; first compound 0.3162 µM) | relative viability (Vemurafenib + Linsitinib; first compound 1 µM) | relative viability (Vemurafenib + Linsitinib; first compound 0.1 µM)
1 | PC-3 [JPC-3] | 0.769 | 0.841 | 0.768 | 0.684 | 0.628 | 0.943 | 1.01 | 0.971 | 0.867 | 0.834 | 0.948 | 0.928 | 0.993 | 0.903 | 0.907 | 0.909 | 1.02 | 1.03 | –
2 | NCI-H2023 | 0.202 | 0.213 | 0.2 | 0.207 | 0.149 | 0.622 | 0.507 | 0.566 | 0.292 | 0.143 | 0.484 | 0.537 | 0.483 | 0.244 | 0.304 | 0.655 | 0.831 | 0.666 | 0.552
3 | LXF-289 | 0.378 | 0.355 | 0.379 | 0.367 | 0.349 | 0.995 | 1.06 | 0.972 | 0.956 | 0.445 | 0.257 | 0.164 | 0.177 | 0.121 | 0.114 | 0.877 | 0.992 | 1.04 | 0.919
4 | LOU-NH91 | 0.804 | 0.825 | 0.73 | 0.718 | 0.613 | 0.954 | 0.902 | 0.808 | 0.69 | 0.521 | 0.478 | 0.482 | 0.482 | 0.452 | 0.34 | 0.864 | – | 1.01 | 0.535
5 | PC-14 | 0.208 | 0.278 | 0.239 | 0.231 | 0.217 | 0.944 | 0.946 | 0.891 | 0.914 | 0.582 | 0.256 | 0.243 | 0.23 | 0.221 | 0.202 | 0.93 | 0.922 | 0.995 | –
6 | H3255 | 0.736 | 0.676 | 0.558 | 0.513 | 0.42 | 0.943 | 1 | 0.929 | 0.825 | 0.452 | 0.403 | 0.345 | 0.363 | 0.315 | 0.256 | 1 | 0.757 | 0.983 | –
7 | NCI-H650 | 0.303 | 0.317 | 0.288 | 0.3 | 0.276 | 0.701 | 0.892 | 0.492 | 0.442 | 0.334 | 0.417 | 0.38 | 0.449 | 0.395 | 0.288 | 0.709 | 0.297 | 0.595 | 0.83
8 | HCC-366 | 0.345 | 0.367 | 0.381 | 0.265 | 0.228 | 0.632 | 0.713 | 0.64 | 0.445 | 0.0575 | 0.556 | 0.596 | 0.427 | 0.34 | 0.207 | 0.637 | – | 0.601 | 0.603
9 | EKVX | 0.643 | 0.329 | 0.363 | 0.284 | 0.28 | 0.986 | 0.894 | 0.779 | 0.652 | 0.292 | 0.556 | 0.572 | 0.544 | 0.407 | 0.266 | 0.942 | 1.03 | 1.02 | –
10 | NCI-H1792 | 0.587 | 0.434 | 0.56 | 0.499 | 0.135 | 0.466 | 0.237 | 0.394 | 0.229 | 0.22 | 0.723 | 0.83 | 0.736 | 0.485 | 0.336 | 0.505 | 0.484 | 0.516 | 0.417
11 | NCI-H1734 | 0.559 | 0.595 | 0.503 | 0.265 | 0.417 | 0.937 | 0.794 | 0.809 | 0.656 | 0.309 | 0.42 | – | 0.394 | 0.244 | 0.208 | 0.859 | 0.759 | 0.808 | 0.847
12 | NCI-H2347 | 0.639 | 0.635 | 0.621 | 0.577 | 0.454 | 1.03 | 0.877 | 0.883 | 0.885 | 0.521 | 0.298 | 0.3 | 0.316 | 0.313 | 0.273 | 0.941 | 0.76 | 0.964 | 1.01
13 | SK-MES-1 | 0.362 | 0.36 | 0.304 | 0.307 | 0.223 | 1.01 | 0.956 | 0.911 | 0.737 | 0.538 | 0.332 | 0.334 | 0.438 | 0.17 | 0.191 | 1.06 | 1.03 | 1.07 | 0.892
14 | NCI-H3122 | 0.415 | 0.547 | 0.457 | 0.345 | 0.154 | 1.04 | 1.04 | 1.07 | 0.763 | 0.289 | 0.806 | 0.653 | 0.624 | 0.487 | 0.295 | 1 | 1.01 | 1.13 | 0.895
15 | NCI-H23 | 0.296 | 0.336 | 0.305 | 0.278 | 0.268 | 0.517 | 0.549 | 0.452 | 0.237 | 0.212 | 0.818 | 0.65 | 0.702 | 0.535 | 0.418 | 0.621 | 0.715 | 0.59 | 0.605
16 | ABC-1 | 1.03 | 1.33 | 1.16 | 1.05 | 0.762 | 0.768 | 0.749 | 0.58 | 0.32 | 0.316 | 0.637 | 0.495 | 0.823 | 0.484 | 0.386 | 0.711 | 0.942 | 0.853 | 0.753

Reference: the supplement of paper PMC10307832
